From patent publication US20250235448A1, “COMBINATION THERAPY FOR TREATING CANCER” (AstraZeneca AB, priority 2022, published 2025)
Where two headings read alike, the source gives them in different places.

Assays:
CWR22Pc-R1-AD1 = assay: Cell proliferation / viability assay (7 days after treatment), AC50 and HSA combination benefit; type: cell-based
Experimental: (§1) The following cell lines were originally obtained from ATCC:
Cell line identification was validated using the CellCheck assay (IDEXX Bioanalytics, Westbrook, ME, USA). All cell lines were validated free of virus Mycoplasma contamination using the MycoSEQ assay (Thermo Fisher Scientific, Waltham, MA, USA) or STAT-Myco assay (IDEXX Bioanalytics).
Live cell count pre- and post-treatment (7 days after treatment) was determined using CellTiter-Glo as per manufacturer's instructions (Promega, Madison, WI, USA; G7570).

LnCAP 95 = assay: as above; type: cell-based; details: LnCAP 95 (mCRPC) cells; monotherapy; mean of two independent experiments each in triplicate
Experimental: as §1
(§2) Cell line identification was validated using the CellCheck assay (IDEXX Bioanalytics, Westbrook, ME, USA). All cell lines were validated free of virus Mycoplasma contamination using the MycoSEQ assay (Thermo Fisher Scientific, Waltham, MA, USA) or STAT-Myco assay (IDEXX Bioanalytics). All cell lines were grown RPMI-1640 growth media (Corning 17-105-CV) supplemented with 10% fetal bovine serum (FBS) or, when indicated, 10% charcoal stripped FBS (ThermoFisher Scientific, 12676029) and 2 mM glutamine.
(§3) Cells in 384-well or 96-well plates were dosed using an Echo 555 (LabCyte, San Jose, CA, USA) or using the HP D300e Digital Dispenser (HP Life Science Dispensing), respectively. Live cell count pre- and post-treatment (7 days after treatment) was determined using CellTiter-Glo as per manufacturer's instructions (Promega, Madison, WI, USA; G7570).
(§4) Cell viability was determined with the Sytox Green assay as described in Davies 2012 and the AC50 calculated. The HSA (Highest Single Agent) Synergy Score was calculated according to Bernenbaum 1989.

LnCAP = assay: as above; type: cell-based; details: Homo sapiens; LnCAP (mHSPC) cells; monotherapy; mean of two independent experiments each in triplicate
Experimental: as §1, §2, §3, §4

non-metastatic CRPC = details: patients with non-metastatic CRPC, ARAMIS trial; placebo 18.5 months; cited from earlier work
CYP3A4 = details: literature statement (Gibbons 2015, Dirix 2016); cited from earlier work

Structure (SMILES) | AC50 (CWR22Pc-R1-AD1; CWR22Pc-R1-AD1 (mCRPC) cells, monotherapy, mean of two independent experiments each in triplicate, read-out: AC50) [nM] | AC50 (LnCAP 95) [nM] | AC50 (LnCAP) [nM] | AC50 (CWR22Pc-R1-AD1) [nM] | metastasis free survival (non-metastatic CRPC) [months] | CYP3A4 interaction (inducer / substrate) (CYP3A4)
CCc1cc2ncc(CN3CCN(c4ccc(C(=O)NC)nc4)CC3)cc2[nH]c1=O [AZD5305, 5-{4-[(7-ethyl-6-oxo-5,6-dihydro-1,5-naphthyridin-3-yl)methyl]piperazin-1-yl}-N-methylpyridine-2-carboxamide] | 5.66 | 700 | 285 | – | – | –
CC(O)c1cc(C(=O)N[C@@H](C)Cn2ccc(-c3ccc(C#N)c(Cl)c3)n2)n[nH]1 (stereo partly drawn) [Darolutamide, N—((S)-1-(3-(3-chloro-4-cyanophenyl)-1H-pyrazol-1-yl)propan-2-yl)-5-(1-hydroxyethyl)-1H-pyrazole-3-carboxamide] | – | 17500 | 3630 | 65.5 | 40.4 | –
O=C(c1cc(Cc2n[nH]c(=O)c3ccccc23)ccc1F)N1CCN(C(=O)C2CC2)CC1 [Olaparib] | – | – | – | – | – | substrate of CYP3A4
CNC(=O)c1ccc(N2C(=S)N(c3ccc(C#N)c(C(F)(F)F)c3)C(=O)C2(C)C)cc1F [enzalutamide] | – | – | – | – | – | strong CYP3A4 inducer
